The text below walks through data of patent publication US10655099B2, “Animal protein-free media for cultivation of cells” (Baxalta Incorporated, priority 2004, dated 2020).

One experiment concerns GD8/6 cells. The following applies: 0-18 mg/L (as HCl salt) in BAV-medium with 0.25% soy hydrolysate vs unsupplemented 0.25% or 0.4% soy hydrolysate.
Experiment [1] concerns GD8/6 cells (CHO-cells stably expressing Factor VIII). The experiment in a line: Volumetric FVIII productivity of GD8/6 cells in chemostat culture (chromogenic FVIII assay). Format: cell-based. The protocol:
(§1) Cell cultures of recombinant mammalian cells (e.g. CHO-cells stably expressing Factor VIII=GD8/6-cells) were grown in suspension in a chemostat culture in 10 l bioreactors. The culture conditions of 37° C., oxygen saturation 20% and pH 7.0 to 7.1 were kept constant. The cultures were supplied with a constant feed of BAV-medium as defined in Example 1 additionally supplemented with soy hydrolysates in the range of […] and/or addition of putrescine.2HCl in the range of 0-1 mg/L (cf. FIG. 1-5).
The volumetric productivity is calculated from the amount of activity units or antigen titers yielded per liter reactor volume per day (U/L/d or mg/L/d) in the respective production systems.

The test system is the same in experiment [2]. The protocol:
as §1
Cell counts from suspension cells or immobilized cells were determined either by counting with a CASY® cell counter as described by Schärfe et al., (Biotechnologie in LaborPraxis 10: 1096-1103 (1988)) or by citric acid extraction and fluorescent staining of the nuclei followed by counting with a NucleoCounter® (Chemometec, DK). The specific growth rate (μ) is calculated from the increase of the cell densities (X1) and/or the dilution rate (D) of the steady state of chemostat cultures of suspensions cells over a certain time interval (t): μ=D+In (Xt I X0)/t

A further experiment relates to Recombinant BHK cells. The following applies: 0.25% (w/v) soy hydrolysate + 1.8 mg/L putrescine.2HCl vs 0.25% soy peptone alone; 3 days; EPO activity per glucose consumption. The protocol:
Recombinant BHK cells were grown to confluence in 5% (v/v) fetal calf serum containing medium. The cells were washed with protein-free medium and incubated for 3 days in BAV medium supplemented with 0.25% (w/v) soy hydrolysate or 0.25% (w/v) soy hydrolysate+1.8 mg/L putrescine.2HCl (FIG. 8).

[3] abbreviates: 0.25% (w/v) soy hydrolysate + 1 mg/L putrescine.2HCl.
The mark [4] stands for this setting: 0.25% (w/v) soy hydrolysate + 1 mg/L putrescine.2HCl vs 0.25% soy hydrolysate alone.

On to `NCCCNCCCCNCCCN` [spermine], for which, in the experiment with GD8/6 cells, the “cell specific productivity (FVIII), change” value was “significant increase”.

As to `NCCC[C@H](N)C(=O)O` [ornithine], the “cell specific productivity (FVIII), change” value with GD8/6 cells is “significant increase”.

Take `NCCCCN` [putrescine]: the “variation of volumetric FVIII-productivity between soy hydrolysate lots” value in experiment [1] (setting [3]) is reported as “only minor variations”. Further, the “volumetric and cell specific FVIII-productivity, change” value in experiment [1] (setting [4]) was “increases”. The “volumetric productivity of FVIII, effect of addition” value in experiment [1] (addition to BAV-medium with 0.25% (w/v) soy hydrolysate, due to increased cell specific FVIII productivity) is on record as “over proportional increased”. For the same compound, in experiment [2] (setting [3]), the “variation of specific growth rates between soy hydrolysate lots” value was “only minor variations”. Moreover, the “specific growth rate, change” value in experiment [2] (setting [4]) was “increases”. In addition, the “increase in EPO productivity” value in the experiment with Recombinant BHK cells is 16%. In addition, the “cell specific productivity (FVIII), change” value with GD8/6 cells is listed as “significant increase”.
